Data from US20170273985A1, “TRICYCLIC DERIVATIVE” (Sunovion Pharmaceuticals Inc., priority 2014, published 2017).

Target: PDE1B (Homo sapiens, UniProt Q01064)
Experiment: In vitro HTRF PDE1 inhibition assay (PDE1B)
Type: biochemical
Excerpt: An exemplary procedure for the in vitro Homogenous Time Resolved Fluorescence assay, which can be used to determine the inhibitory action of compounds of the invention toward PDE1 or its isoforms, follows. The HTRF PDE1 assay utilized the HTRF (Homogenous Time Resolved Fluorescence) technology, which is based on the competition between unlabeled cyclic nucleotide and cyclic nucleotide labeled with XL665 for the binding to cyclic nucleotide-specific antibody labeled with cryptate. The HTRF signal is thus inversely proportional to the concentration of cyclic nucleotide being measured. Since phosphodiesterases break down cyclic nucleotides the HTRF signal was used to determine PDE activity. The Cisbio cGMP HTRF assay kit (Cat no: 62GM2PEC) was utilized. Cyclic GMP was diluted to 200 nM in HTRF assay buffer (1 mM CaCl2, 10 mM MgCl2, 10 mM Tris-HCl, 0.1% BSA, pH 7.4). 10 μl of compound or DMSO was diluted in 200 nM cyclic GMP solution and added to wells of a 96 well white plate to give 100 nM cyclic GMP in 1% DMSO final concentration. PDE (1A3, 1B or IC) was diluted to 2× working concentration in HTRF assay buffer with 2 μg/ml calmodulin, and 10 μl was added to initiate the reaction. The plate was then incubated for 45 minutes at 37° C. d2-Labelled cyclic GMP and anti-cGMP cryptate were diluted in 50 mM phosphate buffer, 0.8 M KF, 1% Triton X100, 0.2% BSA, pH 7.0. Following incubation 10 μl d2-cGMP, then 10 μl anti cGMP cryptate were added to each well and the plate was incubated for 45 minutes at room temperature. The plate was then read on Perkin Elmer Victor at 2 different FRET readings ex/emm 340 nm/665 nm and 340 nm/615 nm. Compounds having an IC50 of <1 μM, are denoted as +++. Compounds having an IC50 of 1−10 μM, are denoted as ++. Compounds having an IC50 of 10-100 μM, are denoted as +.

| SMILES | IC50 (Table 22) | IC50 (Table 25) |
| --- | --- | --- |
| CC(C)c1ncc2c(=O)n3c(nn12)N(CCCc1ccc(F)cc1)CCC3 [Example 47] | < 1000 nM | – |
| CC(C)c1ncc2c(=O)n3c(nn12)N(CCCCCO)CC3 [Example 102] | < 1000 nM | – |
| CC(C)c1ncc2c(=O)n3c(nn12)N(CCCN1CCOCC1)CCC3 [Example 27] | < 1000 nM | – |
| CCc1ccc(C2Cn3c(nn4c(C(C)C)ncc4c3=O)N2CC)cn1 (single isomer, unassigned) [Example 94] | < 1000 nM | – |
| CCc1ccc([C@H]2Cn3c(nn4c(C5CCOCC5)ncc4c3=O)N2CC(C)C)cn1 [Example 92] | 1000 to 10000 nM | – |
| N#Cc1cccc(CN2CCCn3c2nn2c(C4CCOCC4)ncc2c3=O)c1 [Example 60] | < 1000 nM | – |
| CC(C)c1ncc2c(=O)n3c(nn12)N(CCCCCCO)CC3 [Example 103] | < 1000 nM | – |
| CC(C)c1ncc2c(=O)n3c(nn12)N(CCc1ccccn1)CC3 [Example 10] | < 1000 nM | – |
| CCc1ccc(C2Cn3c(nn4c(C(C)C)ncc4c3=O)N2CC(C)C)cn1 (stereo not shown) [Example 98] | 1000 to 10000 nM | – |
| CCc1ccc(C2Cn3c(nn4c(C(C)C)ncc4c3=O)N2CC)cn1 (stereo not shown) [Example 95] | 1000 to 10000 nM | – |
| N#Cc1ccc(CCN2CCn3c2nn2c(C4CCOCC4)ncc2c3=O)cc1 [Example 58] | < 1000 nM | – |
| CCCN1c2nn3c(C4CCOCC4)ncc3c(=O)n2C[C@H]1c1ccc(CC)nc1 [Example 91] | 1000 to 10000 nM | – |
| CCCN1CCCn2c1nn1c(C(C)C)ncc1c2=O [Example 15] | < 1000 nM | – |
| CCCN1c2nn3c(C(C)C)ncc3c(=O)n2CC1c1ccc(CC)nc1 (stereo not shown) [Example 97] | 1000 to 10000 nM | – |
| CC(C)c1ncnc2c(=O)n3c(nc12)N(Cc1ccc(C(F)(F)F)cc1)CC3 [Example 83] | < 1000 nM | – |
| CC(C)c1ncc2c(=O)n3c(nn12)N(Cc1ccncc1)CCC3 [Example 35] | < 1000 nM | – |

| SMILES | IC50 (Table 22) | IC50 (Table 25) |
| --- | --- | --- |
| CCCCN1CCn2c1nn1c(C3CCOCC3)ncc1c2=O [Example 53] | < 1000 nM | – |
| COCCCCCN1CCn2c1nn1c(C(C)C)ncc1c2=O [Example 8] | < 1000 nM | – |
| CC(C)c1ncc2c(=O)n3c(nn12)N(CCc1ccc(F)cc1)CCC3 [Example 45] | < 1000 nM | – |
| COc1ccc(C2Cn3c(nn4c(C5CCOCC5)ncc4c3=O)N2C)cc1 (stereo not shown) [Example 86] | < 1000 nM | – |
| CCCCCN1CCCn2c1nn1c(C(C)C)ncc1c2=O [Example 18] | < 1000 nM | – |
| CCCN1c2nn3c(C(C)C)ncc3c(=O)n2C[C@@H]1c1ccc(CC)nc1 [Example 96] | 1000 to 10000 nM | – |
| CC(C)c1ncc2c(=O)n3c(nn12)N(CC1CCOCC1)CCCC3 [Example 51] | < 1000 nM | – |
| CC(C)c1ncc2c(=O)n3c(nn12)N(Cc1cccc(C(F)(F)F)c1)CCC3 [Example 32] | < 1000 nM | – |
| CC(C)c1ncc2c(=O)n3c(nn12)N(CCc1cccnc1)CCC3 [Example 42] | < 1000 nM | – |
| CC(C)c1ncc2c(=O)n3c(nn12)N(CCC1CCC(F)(F)CC1)CCC3 [Example 21] | < 1000 nM | – |
| CC(C)n1ncc2c(=O)n3c(nc21)N(Cc1ccc(C#N)cc1)CC3 [Example 74] | < 1000 nM | – |
| CC(C)c1ncc2c(=O)n3c(nn12)N(C)[C@H](c1ccc(Cl)cn1)C3 [Example 85, (S)-2-(5-Chloropyridin-2-yl)-8-isopropyl-1-methyl-2,3-dihydrodiimidazo[2,1-c:1′,5′-f][1,2,4]triazin-5(1H)-one] | < 1000 nM | – |
| CC(C)c1ncc2c(=O)n3c(nn12)N(C)C(c1ccc(Cl)cc1)CC3 (stereo not shown) [Example 72] | < 1000 nM | – |
| CC(C)c1ncc2c(=O)n3c(nn12)N(CC(=O)N1CCOCC1)CCC3 [Example 28] | 1000 to 10000 nM | – |
| CC(C)c1ncc2c(=O)n3c(nn12)N(CCCC1CCOCC1)CC3 [Example 5] | < 1000 nM | – |
| COc1cccc(CCCN2CCCn3c2nn2c(C(C)C)ncc2c3=O)c1 [Example 49] | < 1000 nM | – |

Further lines, results first:

| IC50 (Table 22) | IC50 (Table 25) | SMILES |
| --- | --- | --- |
| < 1000 nM | – | CC(C)c1ncc2c(=O)n3c(nn12)OC(Cc1ccc(Cl)cc1)CC3 (stereo not shown) [Example 132] |
| < 1000 nM | – | CC(C)c1ncc2c(=O)n3c(nn12)N(CCC1CCN(C)CC1)CCC3 [Example 114, 9-Isopropyl-1-[2-(1-methyl-4-piperidinyl)ethyl]-1,2,3,4-tetrahydro-6H-imidazo[5,1-f]pyrimido[2,1-c][1,2,4]triazin-6-one] |
| 1000 to 10000 nM | – | CC(C)c1ncc2c(=O)n3c(nn12)N(CCOCCO)CCC3 [Example 107] |
| – | < 1000 nM | CC(C)CCN1CCn2c1nc1c(cnn1C1CCOCC1)c2=O [Example 213] |
| – | < 1000 nM | O=c1c2cnc(C3CCOCC3)n2nc2n1CCCN2C[C@H]1CC[C@H](C(F)(F)F)CC1 [Example 192] |
| – | < 1000 nM | CC(C)CCN1CCCn2c1nc1c(cnn1C1CCOCC1)c2=O [Example 224] |
| – | < 1000 nM | O=c1c2cnc(C3CCOCC3)n2nc2n1CCN2CC1CCCC1 [Example 152] |
| – | < 1000 nM | O=c1c2cnn(C3CCOCC3)c2nc2n1CCN2Cc1ccc(-c2ccc(F)cn2)cc1 [Example 208] |
| – | < 1000 nM | CC(C)n1ncc2c(=O)n3c(nc21)N(Cc1ccc(Cl)cn1)CCC3 [Example 214] |
| < 1000 nM | – | CC(C)c1ncc2c(=O)n3c(nn12)OC(c1ccc(Cl)cc1)CC3 (stereo not shown) [Example 127] |
| – | < 1000 nM | CC(C)CCN1CC(F)(F)Cn2c1nn1c(C3CCOCC3)ncc1c2=O [Example 203] |
| – | < 1000 nM | CC(C)(C)CN1CCCn2c1nc1c(cnn1C1CCOCC1)c2=O [Example 228] |
| – | < 1000 nM | O=c1c2cnn(C3CCOCC3)c2nc2n1CCCN2CCCCC(F)(F)F [Example 225] |
| – | < 1000 nM | O=c1c2cnc(C3CCC3)n2nc2n1CCCN2CC1CCOCC1 [Example 178] |
| – | < 1000 nM | CC(C)CN1CCCn2c1nc1c(cnn1C1CCOCC1)c2=O [Example 226] |
| – | < 1000 nM | O=c1c2cnn(C3CCOCC3)c2nc2n1CCCN2Cc1ccc(-c2ccccn2)cc1 [Example 220] |
| 1000 to 10000 nM | – | CC(C)c1ncc2c(=O)n3c(nn12)N(C(=O)CC1CCOCC1)CCC3 [Example 123, 9-Isopropyl-1-(tetrahydro-2H-pyran-4-ylacetyl)-1,2,3,4-tetrahydro-6H-imidazo[5,1-f]pyrimido[2,1-c][1,2,4]triazin-6-one] |
| – | < 1000 nM | CC(C)n1ncc2c(=O)n3c(nc21)N(CC1CCC(F)(F)CC1)CC3 [Example 206] |
| – | < 1000 nM | O=c1c2cnn(C3CCOCC3)c2nc2n1CCCN2CC1CCC(F)(F)CC1 [Example 223] |
| – | < 1000 nM | CCO[C@H]1CC[C@@H](CN2CCCn3c2nn2c(C4CCOCC4)ncc2c3=O)CC1 [Example 196] |
| – | < 1000 nM | O=c1c2cnc(C3CCOCC3)n2nc2n1CCN2CCc1cccc(F)c1 [Example 147] |

| IC50 (Table 22) | IC50 (Table 25) | SMILES |
| --- | --- | --- |
| < 1000 nM | – | COc1ccc(CC2CCn3c(nn4c(C(C)C)ncc4c3=O)O2)cc1 (stereo not shown) [Example 131] |
| – | < 1000 nM | O=c1c2cnn(C3CCOCC3)c2nc2n1CCCN2Cc1ccc(F)cc1 [Example 219] |
| – | < 1000 nM | COC(C)c1ncc2c(=O)n3c(nn12)N(CCC(C)(C)C)CC3 (stereo not shown) [Example 145] |
| 1000 to 10000 nM | – | COc1cccc(C2CCn3c(nn4c(C(C)C)ncc4c3=O)O2)c1 (stereo not shown) [Example 128] |
| – | < 1000 nM | O=c1c2cnc(C3CCOCC3)n2nc2n1CCCN2C[C@H]1CC[C@@H](C(F)(F)F)CC1 [Example 195] |
| < 1000 nM | – | CC(C)c1ncc2c(=O)n3c(nn12)N(CCc1cccc(C#N)c1)CCC3 [Example 115, 3-(2-(9-Isopropyl-6-oxo-2,3,4,6-tetrahydro-1H-imidazo[1,5-f]pyrimido[2,1-c][1,2,4]triazin-1-yl)ethyl)benzonitrile] |
| – | < 1000 nM | CC(C)CCN1CCCn2c1nn1c(C3CCOCC3)ncc1c2=O [Example 185] |
| – | < 1000 nM | COc1ccc(CN2CCn3c2nn2c(C4CCOCC4)ncc2c3=O)cc1 [Example 157] |
| – | < 1000 nM | O=c1c2cnn(C3CCOCC3)c2nc2n1CCCN2CCCC(F)(F)F [Example 222] |
| – | < 1000 nM | CC(C)(C)CN1CCn2c1nn1c(C3CCOCC3)ncc1c2=O [Example 175] |
| – | < 1000 nM | COCCN1CCn2c1nn1c(C(C)C)ncc1c2=O [Example 139] |
| 10000 to 100000 nM | – | N#Cc1cccc(CCN2CCCn3c2nn2c(C4CCOCC4)ncc2c3=O)c1 [Example 117] |
| – | < 1000 nM | O=c1c2cnn(C3CCOCC3)c2nc2n1CCCN2Cc1ccc(C(F)(F)F)cc1 [Example 218] |
| < 1000 nM | – | CC(C)c1ncc2c(=O)n3c(nn12)N(CCOCCO)CC3 [Example 104] |
| – | < 1000 nM | CC(C)n1ncc2c(=O)n3c(nc21)N(Cc1ccc(-c2ccccn2)cc1)CCC3 [Example 215] |
| – | < 1000 nM | CO[C@@H](C)c1ncc2c(=O)n3c(nn12)N(CCCC(F)(F)F)CC3 [Example 230] |
| – | < 1000 nM | O=c1c2cnc(C3CCC3)n2nc2n1CCCN2Cc1ccc(Cl)cn1 [Example 179] |
| < 1000 nM | – | CC(C)c1ncc2c(=O)n3c(nn12)OC(Cc1ccccc1)CC3 (stereo not shown) [Example 130] |
| – | < 1000 nM | CC(C)CN1CC(F)(F)Cn2c1nn1c(C3CCOCC3)ncc1c2=O [Example 202] |
| – | < 1000 nM | CC(C)c1ncc2c(=O)n3c(nn12)N(Cc1ccc(Cl)cn1)CCC3 [Example 177] |
